# Results: ChEMBL document CHEMBL3046832, “Synthesis of some sulfonamides, disubstituted sulfonylureas or thioureas and some structurally related variants. A class of promising antitumor agents” (2007)
# What was measured:
# Assay type in all cases: functional
# MDA-MB-435 = assay: Cytotoxicity against Homo sapiens (human) MDA-MB-435 cells after 48 hr by SRB assay; conditions: MDA-MB-435, 48 h
# M14 = assay: Cytotoxicity against Homo sapiens (human) M14 cells after 48 hr by SRB assay; conditions: M14, 48 h
# U-251 = assay: Cytotoxicity against Homo sapiens (human) U251 cells after 48 hr by SRB assay; conditions: U-251, 48 h
# SNB-75 = assay: Cytotoxicity against Homo sapiens (human) SNB75 cells after 48 hr by SRB assay; conditions: SNB-75, 48 h
# MCF7 [1] = assay: Cytotoxicity against Homo sapiens (human) MCF7 cells after 48 hr by SRB assay; conditions: MCF7, 48 h
# MDA-MB-231 = assay: Cytotoxicity against Homo sapiens (human) MDA-MB-231 cells after 48 hr by SRB assay; conditions: MDA-MB-231, 48 h
# DU-145 = assay: Cytotoxicity against Homo sapiens (human) DU145 cells after 48 hr by SRB assay; conditions: DU-145, 48 h
# UO-31 = assay: Cytotoxicity against Homo sapiens (human) UO31 cells after 48 hr by SRB assay; conditions: UO-31, 48 h
# RXF 393 = assay: Cytotoxicity against Homo sapiens (human) RXF393 cells after 48 hr by SRB assay; conditions: RXF 393, 48 h
# CAKI-1 = assay: Cytotoxicity against Homo sapiens (human) Caki1 cells after 48 hr by SRB assay; conditions: CAKI-1, 48 h
# 786-0 = assay: Cytotoxicity against Homo sapiens (human) 786-0 cells after 48 hr by SRB assay; conditions: 786-0, 48 h
# SK-OV-3 = assay: Cytotoxicity against Homo sapiens (human) SKOV3 cells after 48 hr by SRB assay; conditions: SK-OV-3, 48 h
# OVCAR-8 = assay: Cytotoxicity against Homo sapiens (human) OVCAR8 cells after 48 hr by SRB assay; conditions: OVCAR-8, 48 h
# OVCAR-5 = assay: Cytotoxicity against Homo sapiens (human) OVCAR5 cells after 48 hr by SRB assay; conditions: OVCAR-5, 48 h
# OVCAR-4 = assay: Cytotoxicity against Homo sapiens (human) OVCAR4 cells after 48 hr by SRB assay; conditions: OVCAR-4, 48 h
# IGROV-1 = assay: Cytotoxicity against Homo sapiens (human) IGROV1 cells after 48 hr by SRB assay; conditions: IGROV-1, 48 h
# UACC-62 = assay: Cytotoxicity against Homo sapiens (human) UACC62 cells after 48 hr by SRB assay; conditions: UACC-62, 48 h
# UACC-257 = assay: Cytotoxicity against Homo sapiens (human) UACC257 cells after 48 hr by SRB assay; conditions: UACC-257, 48 h
# SK-MEL-28 = assay: Cytotoxicity against Homo sapiens (human) SK-MEL-28 cells after 48 hr by SRB assay; conditions: SK-MEL-28, 48 h
# [2] = Cytotoxicity against Homo sapiens (human) prostate cancer cells after 48 hr by SRB assay; conditions: Cancer cell lines
# [3] = Cytotoxicity against Homo sapiens (human) renal cancer cells after 48 hr by SRB assay; conditions: Cancer cell lines
# [4] = Cytotoxicity against Homo sapiens (human) ovarian cancer cells after 48 hr by SRB assay; conditions: Cancer cell lines
# [5] = Cytotoxicity against Homo sapiens (human) melanoma cells after 48 hr by SRB assay; conditions: Melanoma cell
# [6] = Cytotoxicity against Homo sapiens (human) colon cancer cells after 48 hr by SRB assay; conditions: Cancer cell lines
# [7] = Cytotoxicity against Homo sapiens (human) non-small cell lung cancer cells after 48 hr by SRB assay; conditions: Cancer cell lines
# NCI-H460 [8] = assay: Cytotoxicity against Homo sapiens (human) NCI-H460 cells assessed as cellular growth after 48 hr by Alamar blue assay; design: concentration or dose not given beside the values
# [9] = Cytotoxicity against Homo sapiens (human) leukemia cells after 48 hr by SRB assay; conditions: Leukemia cell
# SF-268 = assay: Cytotoxicity against Homo sapiens (human) SF268 cells assessed as cellular growth after 48 hr by Alamar blue assay; design: concentration or dose not given beside the values
# T47D = assay: Cytotoxicity against Homo sapiens (human) T47D cells after 48 hr by SRB assay
# SF-295 = assay: Cytotoxicity against Homo sapiens (human) SF295 cells after 48 hr by SRB assay; conditions: SF-295, 48 h
# SW-620 = assay: Cytotoxicity against Homo sapiens (human) SW620 cells after 48 hr by SRB assay; conditions: SW-620, 48 h
# KM12 = assay: Cytotoxicity against Homo sapiens (human) KM12 cells after 48 hr by SRB assay; conditions: KM12, 48 h
# HCT-15 = assay: Cytotoxicity against Homo sapiens (human) HCT15 cells after 48 hr by SRB assay; conditions: HCT-15, 48 h
# HT-29 = assay: Cytotoxicity against Homo sapiens (human) HT-29 cells after 48 hr by SRB assay; conditions: HT-29, 48 h
# HCC 2998 = assay: Cytotoxicity against Homo sapiens (human) HCC2998 cells after 48 hr by SRB assay; conditions: HCC 2998, 48 h
# NCI-H522 = assay: Cytotoxicity against Homo sapiens (human) NCI-H522 cells after 48 hr by SRB assay; conditions: NCI-H522, 48 h
# COLO 205 = assay: Cytotoxicity against Homo sapiens (human) COLO205 cells after 48 hr by SRB assay; conditions: COLO 205, 48 h
# NCI-H23 = assay: Cytotoxicity against Homo sapiens (human) NCI-H23 cells after 48 hr by SRB assay; conditions: NCI-H23, 48 h
# NCI-H460 [10] = assay: Cytotoxicity against Homo sapiens (human) NCI-H460 cells after 48 hr by SRB assay; conditions: NCI-H460, 48 h
# HOP-92 = assay: Cytotoxicity against Homo sapiens (human) HOP92 cells after 48 hr by SRB assay; conditions: HOP-92, 48 h
# EKVX = assay: Cytotoxicity against Homo sapiens (human) EKVX cells after 48 hr by SRB assay
# HOP-62 = assay: Cytotoxicity against Homo sapiens (human) HOP62 cells after 48 hr by SRB assay; conditions: HOP-62, 48 h
# A549 = assay: Cytotoxicity against Homo sapiens (human) A549 cells after 48 hr by SRB assay; conditions: A549, 48 h
# MOLT-4 = assay: Cytotoxicity against Homo sapiens (human) MOLT4 cells after 48 hr by SRB assay; conditions: MOLT-4, 48 h
# CCRF-CEM = assay: Cytotoxicity against Homo sapiens (human) CCRF-CEM cells after 48 hr by SRB assay
# MCF7 [11] = assay: Cytotoxicity against Homo sapiens (human) MCF7 cells assessed as cellular growth after 48 hr by Alamar blue assay; design: concentration or dose not given beside the values
smiles,measurement,setting,value
O=C(NC1CCCCC1)NS(=O)(=O)c1ccc(-n2nc3c(c2-c2cccs2)Cc2ccccc2-3)cc1,GI50,MDA-MB-435,32.5 µM
same,GI50,M14,64.1 µM
same,GI50,U-251,25.6 µM
same,GI50,SNB-75,52.2 µM
same,GI50,MCF7 [1],> 100 µM
same,GI50,MDA-MB-231,27.9 µM
same,GI50,DU-145,31.9 µM
same,GI50,UO-31,15.4 µM
same,GI50,RXF 393,29.2 µM
same,GI50,CAKI-1,16 µM
same,GI50,786-0,32.3 µM
same,GI50,SK-OV-3,44.5 µM
same,GI50,OVCAR-8,25.3 µM
same,GI50,OVCAR-5,26.6 µM
same,GI50,OVCAR-4,27 µM
same,GI50,IGROV-1,4.12 µM
same,GI50,UACC-62,19.3 µM
same,GI50,UACC-257,24.8 µM
same,GI50,SK-MEL-28,34.2 µM
same,GI50,[2],23.2 µM
same,TGI,[2],34.7 µM
same,GI50,[3],21.3 µM
same,TGI,[3],40.1 µM
same,GI50,[4],25.3 µM
same,TGI,[4],80.3 µM
same,GI50,[5],27.2 µM
same,TGI,[5],53.4 µM
same,GI50,[6],24.2 µM
same,TGI,[6],73.3 µM
same,GI50,[7],38.7 µM
same,TGI,[7],46.7 µM
same,Activity,NCI-H460 [8],<=32%
same,GI50,[9],17.9 µM
same,TGI,[9],26.6 µM
same,Activity,SF-268,<=32%
same,GI50,T47D,39.7 µM
same,GI50,SF-295,34.9 µM
same,GI50,SW-620,20.7 µM
same,GI50,KM12,34.9 µM
same,GI50,HCT-15,17.8 µM
same,GI50,HT-29,34.3 µM
same,GI50,HCC 2998,6.63 µM
same,GI50,NCI-H522,12.3 µM
same,GI50,COLO 205,23.3 µM
same,GI50,NCI-H23,12.8 µM
same,GI50,NCI-H460 [10],93 µM
same,GI50,HOP-92,14.3 µM
same,GI50,EKVX,28.6 µM
same,GI50,HOP-62,> 100 µM
same,GI50,A549,28 µM
same,GI50,MOLT-4,49.9 µM
same,GI50,CCRF-CEM,1.15 µM
same,Activity,MCF7 [11],<=32%
O=C(Nc1ccccc1)NS(=O)(=O)c1ccc(-n2nc3c(c2-c2cccs2)Cc2ccccc2-3)cc1,GI50,MDA-MB-435,22.1 µM
same,GI50,M14,25 µM
same,GI50,U-251,22.9 µM
same,GI50,SNB-75,70.4 µM
same,GI50,MCF7 [1],13.4 µM
same,GI50,MDA-MB-231,15.3 µM
same,GI50,DU-145,28.6 µM
same,GI50,UO-31,32.2 µM
same,GI50,RXF 393,85.3 µM
same,GI50,CAKI-1,11.1 µM
same,GI50,786-0,17.6 µM
same,GI50,SK-OV-3,60.8 µM
same,GI50,OVCAR-8,28.3 µM
same,GI50,OVCAR-5,20.1 µM
same,GI50,OVCAR-4,34.9 µM
same,GI50,IGROV-1,21.4 µM
same,GI50,UACC-62,15.8 µM
same,GI50,UACC-257,17.7 µM
same,GI50,SK-MEL-28,50.2 µM
same,GI50,[2],19.5 µM
same,TGI,[2],98.1 µM
same,GI50,[3],29.6 µM
same,TGI,[3],42.5 µM
same,GI50,[4],31.2 µM
same,TGI,[4],98.3 µM
same,GI50,[5],29.5 µM
same,TGI,[5],43 µM
same,GI50,[6],20.4 µM
same,TGI,[6],37.2 µM
same,GI50,[7],18.2 µM
same,TGI,[7],74.4 µM
same,Activity,NCI-H460 [8],<=32%
same,GI50,[9],12.1 µM
same,TGI,[9],85.6 µM
same,Activity,SF-268,<=32%
same,GI50,T47D,37.9 µM
same,GI50,SF-295,21.9 µM
same,GI50,SW-620,22.9 µM
same,GI50,KM12,8.08 µM
same,GI50,HCT-15,16.9 µM
same,GI50,HT-29,26.7 µM
same,GI50,HCC 2998,15.3 µM
same,GI50,NCI-H522,31.5 µM
same,GI50,COLO 205,44 µM
same,GI50,NCI-H23,12.2 µM
same,GI50,NCI-H460 [10],18.9 µM
same,GI50,HOP-92,12.3 µM
same,GI50,EKVX,26.1 µM
same,GI50,HOP-62,18.1 µM
same,GI50,A549,20.8 µM
same,GI50,MOLT-4,15.5 µM
same,GI50,CCRF-CEM,13.6 µM
same,Activity,MCF7 [11],<=32%
O=S(=O)(NC(=S)Nc1ccccc1)c1ccc(N2N=C3c4ccccc4CC3C2c2cccs2)cc1 (centres undefined),GI50,MDA-MB-435,19.4 µM
same,GI50,M14,22.7 µM
same,GI50,U-251,26.2 µM
same,GI50,SNB-75,71.9 µM
same,GI50,MCF7 [1],3.1 µM
same,GI50,MDA-MB-231,24.8 µM
same,GI50,DU-145,17.8 µM
same,GI50,UO-31,51.2 µM
same,GI50,RXF 393,78.1 µM
same,GI50,CAKI-1,18.5 µM
same,GI50,786-0,19.7 µM
same,GI50,SK-OV-3,49.5 µM
same,GI50,OVCAR-8,39 µM
same,GI50,OVCAR-5,17.9 µM
same,GI50,OVCAR-4,69.8 µM
same,GI50,IGROV-1,65.3 µM
same,GI50,UACC-62,18.5 µM
same,GI50,UACC-257,29.1 µM
same,GI50,SK-MEL-28,53.8 µM
same,GI50,[2],20.3 µM
same,TGI,[2],47.9 µM
same,GI50,[3],32.5 µM
same,TGI,[3],47 µM
same,GI50,[4],43 µM
same,TGI,[4],81.3 µM
same,GI50,[5],32.2 µM
same,TGI,[5],68.4 µM
same,GI50,[6],25.9 µM
same,TGI,[6],75.9 µM
same,GI50,[7],30.5 µM
same,TGI,[7],48.4 µM
same,Activity,NCI-H460 [8],<=32%
same,GI50,[9],27.4 µM
same,TGI,[9],85 µM
same,Activity,SF-268,<=32%
same,GI50,T47D,> 100 µM
same,GI50,SF-295,18.9 µM
same,GI50,SW-620,30 µM
same,GI50,KM12,21.5 µM
same,GI50,HCT-15,22.6 µM
same,GI50,HT-29,36.2 µM
same,GI50,HCC 2998,13.9 µM
same,GI50,NCI-H522,32.8 µM
same,GI50,COLO 205,41.9 µM
same,GI50,NCI-H23,17.6 µM
same,GI50,NCI-H460 [10],24.6 µM
same,GI50,HOP-92,24.9 µM
same,GI50,EKVX,19.5 µM
same,GI50,HOP-62,20.3 µM
same,GI50,A549,15.7 µM
same,GI50,MOLT-4,17.5 µM
same,GI50,CCRF-CEM,30.5 µM
same,Activity,MCF7 [11],<=32%
